Laboratory results: patent US9113629B2, “4-amino-6-(4-substituted-phenyl)-picolinates and 6-amino-2-(4-substituted-phenyl)-pyrimidine-4-carboxylates and their use as herbicides” (DOW AGROSCIENCES LLC, priority 2013, dated 2015)
Like-named read-outs stand apart in the source and are kept apart here.

Key:
[1] = test system: Key Grass and Sedge Weeds as well as Grass Crops; experiment: Post-emergent Test II herbicidal activity (Table 6); format: in vivo; conditions: post-emergence, 336 h; for pest or weed control at 70 g/ha: application rate 70 g ai/ha; for pest or weed control at 140 g/ha: application rate 140 g ai/ha
Procedure, shortened: (§1)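 Greenhouse post-emergent assay: seedlings (first/second true leaf) in Metro-Mix 360 were sprayed at 187 L/ha at a top rate plus twofold dilutions down to 1/16×; solvent-blank controls were included. Percent visual injury was read at 14 d.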

[2] = test system: Key Broadleaf Weed and Crop Species; experiment: Post-emergent Test II herbicidal activity (Table 5); format: in vivo; conditions: post-emergence, 336 h, post-emergent, 14 days after application; for pest or weed control at 70 g/ha: 70 g ai/ha; for pest or weed control at 140 g/ha: 140 g ai/ha
Procedure, shortened: as §1

[3] = Triticum aestivum, TRZSS (wheat), read-out: Visual Growth Reduction (%) 14 Days After Application, TRZSS
[4] = CYPES: yellow nutsedge (Cyperus esculentus), read-out: Visual Growth Reduction (%) 14 Days After Application, CYPES
[5] = DIGSA: crabgrass (Digitaria sanguinalis), read-out: Visual Growth Reduction (%) 14 Days After Application, DIGSA
[6] = ECHCG: barnyardgrass (Echinochloa crus-galli), read-out: Visual Growth Reduction (%) 14 Days After Application, ECHCG
[7] = ORYSA: rice (Oryza sativa), read-out: Visual Growth Reduction (%) 14 Days After Application, ORYSA
[8] = SETFA: giant foxtail (Setaria faberi), read-out: Visual Growth Reduction (%) 14 Days After Application, SETFA
[9] = SORVU: grain sorghum (Sorghum vulgare), read-out: Visual Growth Reduction (%) 14 Days After Application, SORVU
[10] = ZEAMX: maize, corn (Zea mays), read-out: Visual Growth Reduction (%) 14 Days After Application, ZEAMX
[11] = ABUTH: velvetleaf (Abutilon theophrasti), read-out: Visual Growth Reduction (%) 14 Days After Application ABUTH
[12] = AMARE: redroot pigweed (Amaranthus retroflexus), read-out: Visual Growth Reduction (%) 14 Days After Application AMARE
[13] = BRSNN: oilseed-rape, canola (Brassica napus), read-out: Visual Growth Reduction (%) 14 Days After Application BRSNN
[14] = CHEAL: lambsquarters (Chenopodium album), read-out: Visual Growth Reduction (%) 14 Days After Application CHEAL
[15] = EPHHL: wild poinsettia (Euphorbia heterophylla), read-out: Visual Growth Reduction (%) 14 Days After Application EPHHL
[16] = HELAN: sunflower (Helianthus annuus), read-out: Visual Growth Reduction (%) 14 Days After Application HELAN
[17] = VIOTR: wild pansy (Viola tricolor), read-out: Visual Growth Reduction (%) 14 Days After Application VIOTR

SMILES | pest or weed control at 70 g/ha [1, 3] [%] | pest or weed control at 140 g/ha [1, 3] [%] | pest or weed control at 70 g/ha [1, 4] [%] | pest or weed control at 140 g/ha [1, 5] [%] | pest or weed control at 70 g/ha [1, 6] [%] | pest or weed control at 140 g/ha [1, 6] [%] | pest or weed control at 70 g/ha [1, 7] [%] | pest or weed control at 140 g/ha [1, 7] [%] | pest or weed control at 70 g/ha [1, 8] [%] | pest or weed control at 140 g/ha [1, 8] [%] | pest or weed control at 70 g/ha [1, 9] [%] | pest or weed control at 140 g/ha [1, 9] [%] | pest or weed control at 70 g/ha [1, 10] [%] | pest or weed control at 140 g/ha [1, 10] [%] | pest or weed control at 70 g/ha [2, 11] [%] | pest or weed control at 140 g/ha [2, 11] [%] | pest or weed control at 70 g/ha [2, 12] [%] | pest or weed control at 140 g/ha [2, 12] [%] | pest or weed control at 70 g/ha [2, 13] [%] | pest or weed control at 140 g/ha [2, 13] [%] | also measured
COC(=O)c1nc(-c2cc(F)c(Br)cc2F)nc(N)c1OC [Compound 2] | 45 to 59 | 45 to 59 | 60 to 74 | 60 to 74 | 60 to 74 | 60 to 74 | 0 to 29 | 0 to 29 | 45 to 59 | 60 to 74 | 30 to 44 | 60 to 74 | 75 to 84 | 75 to 84 | 95 to 100 | 95 to 100 | 85 to 94 | 85 to 94 | 95 to 100 | 95 to 100 | pest or weed control at 140 g/ha [1, 4]: 60 to 74%; pest or weed control at 70 g/ha [2, 14]: 95 to 100%; pest or weed control at 140 g/ha [2, 14]: 95 to 100%; pest or weed control at 70 g/ha [2, 15]: 95 to 100%; pest or weed control at 140 g/ha [2, 15]: 95 to 100%; pest or weed control at 70 g/ha [2, 16]: 95 to 100%; pest or weed control at 140 g/ha [2, 16]: 95 to 100%; pest or weed control at 70 g/ha [2, 17]: 30 to 44%; pest or weed control at 140 g/ha [2, 17]: 95 to 100%; melting point: 186 to 187 °C
Cc1c(-c2ccc(C(F)(F)F)c(F)c2)nc(C(=O)O)c(Cl)c1N [Compound 161, 4-amino-3-chloro-6-(3-fluoro-4-(trifluoromethyl)phenyl)-5-methylpicolinic acid] | 60 to 74 | 60 to 74 | 95 to 100 | 45 to 59 | 45 to 59 | 60 to 74 | 0 to 29 | 0 to 29 | 85 to 94 | 85 to 94 | 0 to 29 | 0 to 29 | 60 to 74 | 60 to 74 | 75 to 84 | 85 to 94 | 45 to 59 | 95 to 100 | 95 to 100 | 95 to 100 | pest or weed control at 70 g/ha [1, 5]: 30 to 44%; pest or weed control at 70 g/ha [2, 14]: 95 to 100%; pest or weed control at 140 g/ha [2, 14]: 95 to 100%; pest or weed control at 70 g/ha [2, 15]: 0 to 29%; pest or weed control at 140 g/ha [2, 15]: 0 to 29%; pest or weed control at 70 g/ha [2, 16]: 95 to 100%; pest or weed control at 140 g/ha [2, 16]: 95 to 100%; pest or weed control at 70 g/ha [2, 17]: 0 to 29%; pest or weed control at 140 g/ha [2, 17]: 0 to 29%; melting point: 170 to 171.5 °C
COC(=O)c1nc(-c2cc(F)c(F)cc2F)c(F)c(N)c1Cl [Compound 200, Methyl 4-amino-3-chloro-5-fluoro-6-(2,4,5-trifluorophenyl)picolinate] | 30 to 44 | 30 to 44 | 0 to 29 | 75 to 84 | 75 to 84 | 75 to 84 | 0 to 29 | 0 to 29 | 45 to 59 | 75 to 84 | 0 to 29 | 0 to 29 | 45 to 59 | 60 to 74 | 95 to 100 | 95 to 100 | 95 to 100 | 95 to 100 | 95 to 100 | 95 to 100 | pest or weed control at 140 g/ha [1, 4]: 45 to 59%; pest or weed control at 70 g/ha [1, 5]: 75 to 84%; pest or weed control at 70 g/ha [2, 14]: 95 to 100%; pest or weed control at 140 g/ha [2, 14]: 95 to 100%; pest or weed control at 70 g/ha [2, 15]: 95 to 100%; pest or weed control at 140 g/ha [2, 15]: 95 to 100%; pest or weed control at 70 g/ha [2, 16]: 85 to 94%; pest or weed control at 140 g/ha [2, 16]: 95 to 100%; pest or weed control at 70 g/ha [2, 17]: 75 to 84%; pest or weed control at 140 g/ha [2, 17]: 95 to 100%; melting point: 143.5 to 144.5 °C
